Results on 1 molecule are retold here after ChEMBL document CHEMBL1150087, “Structural Revision of Physalin H Isolated from Physalis angulata” (1995).

Active and inactive are the calls of the source. No cut-off for these calls is given here.

For this experiment, the system named is HeLa. The experiment can be described thus: Cytotoxicity against human HeLa cells. Format: functional.

`C[C@@]12C[C@H]3OC(=O)[C@@H]1CO[C@@]14O[C@]5([C@H]2C1=O)[C@@](O)(CC[C@H]1[C@H]4C[C@@H](O)[C@@]2(O)CC=CC(=O)[C@]12C)C(=O)O[C@@]35C`: the ID50 result was “inactive”.
